Measurements as given in PMC4033661 (Journal of medicinal chemistry, 2014).
Converted amounts (≈) assume the structure as drawn. “Also recorded” adds a separate entry of the source.

Legend:
[1] = test system: HT22 cells; assay: HT22 cell culture assay, glutamate-induced cell death; format: cell-based, mouse
[2] = Aqueous kinetic solubility in PBS buffer; format: physicochemical; conditions: pH 7.4
[3] = Microsomal stability, rat; format: in vitro ADME; conditions: rat liver microsomes, in the presence of NADPH
[4] = Stability in aqueous solutions; format: physicochemical; conditions: pH 2, pH 7.4, pH 9
[5] = Microsomal stability, mouse; format: in vitro ADME; conditions: mouse liver microsomes, in the presence of NADPH
[6] = biological target: T1, human platelet 12-lipoxygenase (12-LOX) (Homo sapiens, UniProt P18054); assay: Lipoxygenase UV-Vis assay, 12-LOX selectivity
T1 sequence (P18054 1-663): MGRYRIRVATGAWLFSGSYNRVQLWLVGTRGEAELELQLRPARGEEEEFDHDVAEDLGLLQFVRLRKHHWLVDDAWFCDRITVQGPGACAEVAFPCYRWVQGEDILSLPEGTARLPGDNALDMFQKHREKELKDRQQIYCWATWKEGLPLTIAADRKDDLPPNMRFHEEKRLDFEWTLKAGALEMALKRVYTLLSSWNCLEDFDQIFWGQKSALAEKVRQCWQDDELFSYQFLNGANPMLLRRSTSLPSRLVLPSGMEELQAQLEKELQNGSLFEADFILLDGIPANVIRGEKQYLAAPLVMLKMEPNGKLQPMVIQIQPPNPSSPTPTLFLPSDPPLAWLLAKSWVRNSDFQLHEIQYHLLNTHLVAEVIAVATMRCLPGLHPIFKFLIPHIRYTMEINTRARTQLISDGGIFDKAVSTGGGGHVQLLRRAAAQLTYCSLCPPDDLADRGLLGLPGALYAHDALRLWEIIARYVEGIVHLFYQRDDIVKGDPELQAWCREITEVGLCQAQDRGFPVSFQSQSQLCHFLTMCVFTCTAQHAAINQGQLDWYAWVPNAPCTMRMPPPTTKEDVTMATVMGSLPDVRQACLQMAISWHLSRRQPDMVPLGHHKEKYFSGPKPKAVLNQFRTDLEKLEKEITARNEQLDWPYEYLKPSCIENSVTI

[7] = test system: human 12/15-LOX; conditions: read-out: 12/15-LOX IC50; cited from earlier work

CNc1oc(-c2cccc3ccccc23)nc1C#N [Compound 1, 5-(Methylamino)-2-(naphthalen-1-yl)oxazole-4-carbonitrile]
protection against oxidative glutamate toxicity ([1]; HT22 cells, 5 mM glutamate, increasing amounts of compound): protective; also recorded: dose-dependent protection | solubility kinetic [2]: 1.2 µM (≈ 0.299 µg/mL) | Microsomal Stability T1/2 [3]: 18 (rat) min | stability in aqueous solutions [4]: stable | Microsomal Stability T1/2 [5]: 5.5 (mouse) min

CNc1sc(-c2cccc3ccccc23)nc1C#N [Compound 32, 5-(methylamino)-2-(naphthalen-1-yl)thiazole-4-carbonitrile]
IC50 [6]: > 50000 nM

CNc1nc(C#N)c(-c2cccc3ccccc23)o1 [Compound 34]
cellular protection in HT22 cells ([1]; 5 μM concentration, glutamate-treated): did not protect; also recorded: does not protect

O=c1cc(-c2ccccc2)oc2cc(O)c(O)c(O)c12 [baicalein]
IC50 [7]: 1600 nM

C[C@H]1[C@H](C)CC[C@]2(C)CC[C@]3(C)C(=CC[C@@H]4[C@@]5(C)CC[C@@H](O)[C@](C)(C(=O)O)[C@@H]5CC[C@]43C)[C@H]12 [boswellic acid]
IC50 [7]: 1000 nM
